# Assays:
# A2780S cells [1] = assay: Inhibition of tumor cell proliferation in vitro, 72 hour treatment; format: cell-based; conditions: Homo sapiens
# [2] = test system: A2780 ovarian carcinoma cells; assay: Clonogenic growth assay and drug combination studies; format: cell-based, human; conditions: clonogenic assays, single agent
# A2780S cells [3] = assay: Cell cycle analysis by flow cytometry; format: cell-based, human; conditions: 170 nM
# Protocol: Log phase A2780s cells were plated overnight in 6 well plates. […] Cells were harvested by trypsinization followed by centrifugation. Cell pellets were then resuspended by vortexing in 1 ml 80% methanol and fixed overnight at −20° C. Cells were recovered by centrifugation and washed two times with 1 ml of PBS. Cells were resuspended in 1 ml PBS, 2% FBS, 0.25% Triton X-100 and incubated at 4° C. for 10 minutes. Cells were again recovered by centrifugation and resuspended in 50 μl PBS, 2% FBS, 0.1% Triton X-100. Anti-Phospho-Threonine Proline antibody (IgM, New England Biolabs #9391S) was added and the cells were incubated for 30 minutes at 4° C. Cells were washed with PBS, 2% FBS, 0.1% Triton X-100 and resuspended in 50 μl PBS, 2% FBS, 0.1% Triton X-100. FITC-anti-Mouse antibody (Pharmingen #12064D) was added and incubated for 30 minutes at 4° C. in the dark. Cells were washed with PBS, 2% FBS, 0.1% Triton X-100 and resuspended in Propidium Iodide/RNase in PBS (10 μg/ml PI, 100 μg/ml RNase (DNase free)) and incubated at 37° C. for 30 minutes in the dark. Samples were analyzed using a flow cytometer.
# [4] = test system: PARP cleavage in A2780S cells; assay: PARP cleavage by western blot; format: cell-based, human; conditions: 24 hour time point
# Protocol: FIG. 3. […]. Protein extracts were then examined by western blot using an anti-PARP antibody (Clonetech). The arrow signifies caspase cleaved PARP protein fragment.
# Compound treated A2780S cells were harvested at approximately 70% confluence and total protein was prepared by lysing the cells in RIPA [50 mM Tris (pH8), 150 mM NaCl, 1% NP-40, 0.5% Na-deoxycolate, 0.1% SDS, 0.1% Na3VO4, 0.1 mM NaF, 10 mM β-glycerophosphate, plus Complete® protease inhibitors (Boehringer Mannhiem)] buffer. Cell pellets were resuspended at a density of<2×10^7 cells/ml and incubated for 20 minutes on ice followed by a high speed 14,000 rpm centrifugation. The protein supernatant was then removed from the debris and protein content was quantitated using the Micro-BCA assay (Pierce). Treated extracts (25 microgram/lane) were then separated using a 10% SDS-polyacrylamide gel (10.5×14 cm). Proteins were then transferred from the gel to PVDF-membrane (Millipore) by exposure to […] in a semi-dry blotting apparatus (Hoeffer). PVDF protein blots were then blocked with 5% non-fat milk in TTBS (0.1% Tween 20 in Tris-buffered saline). […]. The blots were then washed three times with TTBS and developed with ECL-plus western blotting detection system (Amersham).
# in vivo = conditions: Balb/c nu/nu nude, mouse, in vivo
# Protocol: (§1) In vivo Antitumor Testing
# (§2) Paclitaxel was dissolved in a 50/50 mixture of ethanol and Cremophor® and stored at 4° C.; final dilution of paclitaxel was obtained immediately before drug administration with NaCl 0.9%. 5-FU was dissolved in normal saline (NaCl 0.9%). […] The volume of all compounds injected was 0.01 ml/g of mouse weight.
# (§3) Solid Tumor Xenografts in Nude Mice.
# (§4) All solid tumors were maintained in Balb/c nu/nu nude mice. Tumors were propagated as subcutaneous transplants using tumor fragments obtained from donor mice. All tumor implants for efficacy testing were subcutaneous (sc).
# (§5) The required number of animals needed to detect a meaningful response were grouped at the start of the experiment and each was given a subcutaneous implant of a tumor fragment (˜50 mg) with a 13-gauge trocar. For treatment of early-stage tumors, the animals were again grouped before distribution to the various treatment and control groups. For treatment of animals with advanced-stage disease, tumors were allowed to grow to the pre-determined size window (animals with tumors outside the range were excluded) and animals were evenly distributed to various treatment and control groups. Treatment of each animal was based on individual body weight. Treated animals were checked daily for treatment related toxicity/mortality. Each group of animals was weighed before the initiation of treatment (Wt1) and then again following the last treatment dose (Wt2). The difference in body weight (Wt2-Wt1) provides a measure of treatment-related toxicity.
# (§6) Tumor response was determined by measurement of tumors with a caliper twice a week, until the tumors reach a predetermined “target” size of 1 g. Tumor weights (mg) were estimated from the Formula: […]
# (§7) Antitumor activity was evaluated at the maximum tolerated dose (MTD) which is defined as the dose level immediately […] which excessive toxicity (i.e. more than one death) occurred. […] When death occured, the day of death was recorded.
# (§8) Tumor response end-point was expressed in terms of tumor growth delay (T-C value), defined as the difference in time (days) required for the treated tumors (T) to reach a predetermined target size compared to those of the control group ®.
# (§9) To estimate tumor cell kill, the tumor volume doubling time (TVDT) was first calculated with the Formula:
# (§10) TVDT=Median time (days) for control tumors to reach target size−Median time (days) for control tumors to reach half the target size
# [5] = test system: Colo205 human colon carcinoma; assay: Colo205 xenograft in nude mice; conditions: for tumor regression: at MTD; for antitumor activity (in words): head-to-head at MTD
# Protocol: as §1, §2, §3, §4, §5, §6, §7, §8, §9, §10
# [6] = test system: A2780 human ovarian carcinoma; assay: A2780 xenograft in nude mice; format: in vivo
# [7] = test system: P388 mouse leukemia, Cyclin E transgenic mouse breast carcinoma, A2780, Colo205 and A431 tumor models; assay: Multiple murine and human tumor models in vivo; parameters: species or system mice
# From the text: The following tumors were used: A2780 human ovarian carcinoma, Br-cycE murine breast carcinoma, A431 human squamous cell carcinoma and Colo 205 colorectal carcinoma.
# Compound 1 was compared head to head with flavopiridol in each of these models.
structure (smiles),measurement,setting,value
"CC(C)(C)c1cnc(CSc2cnc(NC(=O)C3CCNCC3)s2)o1 [Compound 1, N-[5-[[[5-(1,1-Dimethylethyl)-2-oxazolyl]methyl]thio]-2-thiazolyl]-4-piperidinecarboxamide]",IC90,A2780S cells [1],170 nM
same,drug exposure sufficient to elicit a maximal anti-proliferative response,[2],8 h
same,% Apo (sub-G1 cells by DNA staining),A2780S cells [3]; 8 hr. exposure,6%
same,% G1,A2780S cells [3]; 8 hr. exposure,56%
same,% G2,A2780S cells [3]; 8 hr. exposure,22%
same,% M,A2780S cells [3]; 8 hr. exposure,1%
same,% S,A2780S cells [3]; 8 hr. exposure,15%
same,% Apo (sub-G1 cells by DNA staining),A2780S cells [3]; 24 hr. exposure,32 ± 12%
same,% G1,A2780S cells [3]; 24 hr. exposure,45%
same,% G2,A2780S cells [3]; 24 hr. exposure,9.7%
same,% M,A2780S cells [3]; 24 hr. exposure,0.3%
same,% S,A2780S cells [3]; 24 hr. exposure,8%
same,PARP cleavage (caspase activation),[4],Extensive cleavage
same,MTD at 8 days,in vivo; ip,36 mg/kg
same,log cell kill (LCK),"[5]; MTD of 36 mg/kg, IP, QD×8",> 2.0 LCK
same,tumor regression,[5],tumor regression
same,antitumor activity (in words),[5],marked antitumor activity
same,schedule dependence of activity,[6]; IP,qdx8=qdx14>>>q2dx5=q4dx3
same,efficacy,"[6]; dosed IP, qdx8 schedule, multiple dose levels",curative efficacy
same,efficacy,"[6]; dosed orally, qdx8 schedule",modest efficacy
same,efficacy,[6]; single 24 hour continuous infusion at the MTD,curative efficacy
same,anti-tumor activity in vivo,[7],broad spectrum anti-tumor activity
"CC(=O)O[C@H]1C(=O)[C@@]2(C)[C@H]([C@H](OC(=O)c3ccccc3)[C@]3(O)C[C@H](OC(=O)[C@H](O)[C@@H](NC(=O)c4ccccc4)c4ccccc4)C(C)=C1C3(C)C)[C@]1(OC(C)=O)CO[C@@H]1C[C@@H]2O [Paclitaxel, paclitaxel, reference compound]",MTD,in vivo; iv,36 mg/kg
same,antitumor activity (in words),[5],comparable to Compound 1
"O=c1[nH]cc(F)c(=O)[nH]1 [Compound 5-FU, 5-fluorouracil, reference compound]",tumor regression,[5],failed to achieve tumor regression
same,antitumor activity (in words),[5],considerably less active

# Reference: US20030114504A1, “Compositions and methods for the treatment of cancer” (priority 2001, published 2003)
